“Also recorded” adds a separate entry of the source. Like-named read-outs stand apart in the source and are kept apart here.
Legend:
[1] = target: T1, opioid receptor (rat brain synaptosomal plasma membranes) (Rattus norvegicus, UniProt P33535); assay: displacement of ^3H-dihydromorphine (^3H-DHM) from rat brain synaptosomal plasma membranes; format: binding; conditions: for Hill coefficient: ^3H-DHM displacement; for binding activity for use in detection and quantification of receptor sites: synaptosomal membranes, in words
T1 construct: from rat brain synaptosomal plasma membranes; from tissue; host or cells: rat brain synaptosomal plasma membranes
T1 sequence (P33535 whole entry): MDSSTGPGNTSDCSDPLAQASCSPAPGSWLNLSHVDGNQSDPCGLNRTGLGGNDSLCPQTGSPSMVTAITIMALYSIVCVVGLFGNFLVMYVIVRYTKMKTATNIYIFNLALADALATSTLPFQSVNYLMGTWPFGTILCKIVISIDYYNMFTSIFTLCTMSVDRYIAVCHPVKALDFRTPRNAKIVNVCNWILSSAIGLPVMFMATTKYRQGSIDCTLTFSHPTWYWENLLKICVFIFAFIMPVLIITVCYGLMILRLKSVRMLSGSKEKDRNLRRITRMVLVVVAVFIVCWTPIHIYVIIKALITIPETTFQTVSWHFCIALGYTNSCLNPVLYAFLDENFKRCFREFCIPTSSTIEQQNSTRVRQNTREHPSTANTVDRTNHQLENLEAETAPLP

[2] = target: T2, opioid receptor sites, ^3H-DHM indicator ligand (Rattus norvegicus, UniProt P33535); assay: site selectivity analysis (Terenius and Wahlstrom), displacement of labeled ^3H-DHM in presence of cold DALE; format: binding
T2 construct: from rat brain synaptosomal plasma membranes; from tissue; host or cells: rat brain synaptosomal plasma membranes (inferred from the sister test; b86 says only 'a substrate')
T2 sequence (P33535 whole entry): as above
From the text: (§1) In FIG. 1 it will be noted that compounds which displace the two indicator ligands differently provide a curve which is convex towards the axis of the labeled indicator ligand which is less favorably displaced.

[3] = target: T3, opioid receptor sites, ^3H-DALE indicator ligand (Rattus norvegicus, UniProt P33533); assay: site selectivity analysis (Terenius and Wahlstrom), displacement of labeled ^3H-DALE in presence of cold DHM; format: binding
T3 construct: from rat brain synaptosomal plasma membranes; from tissue; host or cells: rat brain synaptosomal plasma membranes (inferred from the sister test; b86 says only 'a substrate')
T3 sequence (P33533 whole entry): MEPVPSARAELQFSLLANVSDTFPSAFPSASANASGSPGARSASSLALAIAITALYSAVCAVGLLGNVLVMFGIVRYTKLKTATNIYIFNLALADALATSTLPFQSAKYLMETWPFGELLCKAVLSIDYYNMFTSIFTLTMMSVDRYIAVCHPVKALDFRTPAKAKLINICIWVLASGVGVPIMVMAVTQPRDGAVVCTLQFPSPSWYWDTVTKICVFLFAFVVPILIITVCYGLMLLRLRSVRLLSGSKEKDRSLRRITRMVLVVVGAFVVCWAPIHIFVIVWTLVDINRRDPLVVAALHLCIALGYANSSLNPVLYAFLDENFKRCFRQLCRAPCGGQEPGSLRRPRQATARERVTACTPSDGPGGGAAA
From the text: as §1

[4] = system: guinea pig ileum longitudinal muscle; assay: electrically stimulated guinea pig ileum longitudinal muscle preparation; conditions: for persistence of antagonist effect on washing of ileum: after washing
Experimental: 6-FN was tested for activity on an electrically stimulated guinea pig ileum longitudinal muscle preparation. In this test, a specimen of guinea pig ileum was stretched between two wires in a nutrient solution (2.5 mil.) and stimulated supramaximally at 0.1 Hz. In the absence of opioid agonists and antagonists electrical stimulation of the muscle results in contraction.

[5] = fluorescence and absorption properties; format: physicochemical; conditions: for emission maximum / excitation maximum: pH 7 phosphate buffer, 10^-6 M solution
Experimental: The container was wrapped in aluminium foil. Thereafter, portions of ethyl alcohol and water were added to the reaction mixture.

[6] = hygroscopicity of sample submitted for elemental analysis; format: physicochemical
[7] = determined graphically, rat brain synaptosomal plasma membranes

## C=CCN1CC[C@]23c4c5ccc(O)c4O[C@H]2C(=NNC(=S)Nc2ccc4c(c2)C(=O)OC42c4ccc(O)cc4Oc4cc(O)ccc42)CC[C@@]3(O)[C@H]1C5 [6-FN, 1-(N)-Fluoresceinyl Naloxone Thiosemicarbazone]
[1]
  Hill coefficient: 0.671
  binding activity for use in detection and quantification of receptor sites: sufficient binding activity
[1]; [7]
  IC50: 20 nM
[2]
  IC50: 12 nM
[2]; percent bound DALE* versus percent bound DHM*, in words
  site selectivity compared with naloxone (FIG. 1): show clearly the difference between 6-FN and naloxone with respect to site selectivity
[3]
  IC50: 17 nM
[4]; 10^-6 M 6-FN, FIG. 2
  agonist activity of 6-FN: slight agonist effect; also recorded: partial agonist activity
[4]
  persistence of antagonist effect on washing of ileum: did not readily eliminate the antagonist effect
[4]; final 6-FN concentration 10^-7 M, prior to normorphine
  antagonist effect with respect to normorphine: antagonist effect; also recorded: significantly inhibited the agonist effect of normorphine
[4]; inhibition of normorphine agonist effect
  antagonist effect compared with inhibiting effect of naloxone: ten times less effective
[5]
  fluorescence polarization: 0.038
  emission maximum: 513 nm
  excitation maximum: 493 nm
[5]; 10^-5 M solution, phosphate buffer
  absorption maximum: 493 nm
[5]; 10^-5 M solution, phosphate buffer, 493 nm
  absorbance A at absorption maximum: 0.410
[5]; 10^-9 M
  quantum yield compared to free fluorescein: about 67%

## O=C1OC2(c3ccc(O)cc3Oc3cc(O)ccc32)c2ccc(NC(=S)NN=C3CC[C@@]4(O)[C@H]5Cc6ccc(O)c7c6[C@@]4(CCN5CC4CC4)[C@H]3O7)cc21 [6-FNX, 1-(N)-fluoresceinyl naltrexone thiosemicarbazone]
[1]
  IC50: 5 nM
  Hill coefficient: 0.675
  binding activity for use in detection and quantification of receptor sites: sufficient binding activity

## CN1CC[C@]23c4c5ccc(O)c4O[C@H]2C(=NNC(=S)Nc2ccc4c(c2)C(=O)OC42c4ccc(O)cc4Oc4cc(O)ccc42)CC[C@@]3(O)[C@H]1C5 [6-FO, 1-(N)-Fluoresceinyl Oxymorphone thiosemicarbazone]
[1]
  Hill coefficient: 0.989
  binding activity for use in detection and quantification of receptor sites: sufficient binding activity
[1]; [7]
  IC50: 20 nM
[6]
  hygroscopicity: very hygroscopic

## C=CCN1CC[C@]23c4c5ccc(O)c4O[C@H]2C(=NNC(=S)Nc2ccc4c(c2)C(=O)OC42c4ccc(N(C)C)cc4Oc4cc(N(C)C)ccc42)CC[C@@]3(O)[C@H]1C5 [6-RN, 1-(N)-tetramethylrhodaminyl-B-naloxone Thiosemicarbazone]
[1]
  Hill coefficient: 1.09
  binding activity for use in detection and quantification of receptor sites: sufficient binding activity

## O=C1OC2(c3ccc(O)cc3Oc3cc(O)ccc32)c2ccccc21 [free fluorescein, fluorescein, reference compound]
[5]
  fluorescence polarization: 0.022
  emission maximum: 510-511 nm
  excitation maximum: 493 nm

## C=CCN1CC[C@]23c4c5ccc(O)c4O[C@H]2C(=O)CC[C@@]3(O)[C@H]1C5 [naloxone, reference compound]
[4]; 10^-7 M naloxone versus 10^-6 M 6-FN
  reversal of 6-FN partial agonist activity by naloxone: reversible
[4]; FIG. 2 legend
  antagonist effect of naloxone with respect to 6-FN: antagonist effect
[4]
  persistence of antagonist effect on washing of ileum: similar

## Oc1ccc2c3c1O[C@H]1[C@@H](O)C=C[C@H]4[C@@H](C2)NCC[C@@]341 [normorphine, reference compound]
[4]; normorphine 25 microliters, 10^-7 M
  agonist effect, inhibition of contraction of ileum: agonist effect; also recorded: substantially inhibited contraction of the muscle
